Source: patent US20190185544A1, “COMPOSITIONS AND METHODS OF MODULATING ABETA PROTEIN” (University of South Florida, priority 2016, published 2019)
“Also recorded” adds a separate entry of the source. Residues, ends and D or L forms follow the SMILES beside them.

Columns and labels:
CHO/APPwt cells [1] = experiment: Aβ production in CHO/APPwt cells, treatment alone (Aβ1-40, 42 ELISA, 82E1 WB); type: cell-based, Chinese hamster; settings: for Aβ production (Aβ1-40, 42): serum-free medium, 2 h (ELISA) or 16 h (WB)
Experimental: Chinese hamster ovary (CHO) cells overexpressing human wild-type amyloid precursor protein (APPwt) (CHO/APPwt cells) were cultured in 96-well plate at about 2×10^4/well in Dulbecco's modified Eagle's medium (DMEM) with 10% fetal bovine serum (FBS), 1 mM sodium pyruvate and 100 U/mL of penicillin/streptomycin for 18 hours.
CHO/APPwt cells were cultured in 96-well plate (about 2×10^4/well) in serum-free medium and treated with ApoE LDLR, FlagApoE LDLR (SEQ ID NO.: 1 with an N-terminal FLAG tag), BiotinApo LDLR (SEQ ID NO.: 1 with an N-terminal Biotin) and 3 lysinesApoE LDLR (3KApoE LDLR (SEQ ID NO.: 2)) at indicated doses for about 2 hours.
The conditioned media and cell lysates were prepared, and subjected to Aβ ELISA and protein assay.
CHO cells overexpressing human wild-type APP (CHO/APPwt) cells were cultured in 96-well plate at 2×10^4/well in Dulbecco's modified Eagle's medium (DMEM) with 10% fetal bovine serum (FBS), 1 mM sodium pyruvate and 100 U/mL of penicillin/streptomycin for 18 hours. […] 82E1 WB analyses as shown below the Aβ ELISA result histograms. The Aβ ELISA results are representative of three independent experiments with each condition triplicated and presented as mean±SD.
(residues 133-152, SEQ ID NO: 1)] as indicated for 2 and 16 hours (h). The conditioned media and cell lysates were analyzed by Aβ1-40, 42 ELISA (FIG. 10A), 82E1 WB analysis (FIG. 10B) and protein assay, respectively. In addition, (FIG. 10C) CHO/APPwt cells were cultured in 96-well plate (2×10^4/well) in serum-free DMEM and treated with FlagApoE-LBDP, BiotinApoE-LBDP and 3 lysineApoE-LBDP (3KApoE-LBDP) in comparing to ApoE-LBDP at indicated doses for 2 hours (h). […] (SEQ ID NO: 2); […]-[…] (SEQ ID NO: 10); Biotin-[…] (SEQ ID NO: 1 with an N-Terminal Biotin).
CHO cells engineered to express human wild-type APP (CHO/APPwt) or Swedish mutant APP (CHO/APPswe) were obtained. These cells were cultured in 96 or 24 well plates at 4×10^4 or 2×10^5 cells/well, respectively, in Dulbecco's modified Eagle's medium (DMEM) with 10% fetal bovine serum, 1 mM sodium pyruvate and 100 U/mL of penicillin/streptomycin (Invitrogen, Thermo Fisher Scientific). In addition, murine N2a cells transfected with APPwt (N2a/APPwt were obtained), SH-SY5Y cells transfected with APPswe and wild-type SH-SY5Y cells (ATCC, Manassas, Va.) were cultured as previously described^42. Primary hN2TM human neurons (Neuromics, Edina, Minn.) were cultured in hN2TM human neuron culture media and primary HCN2 human neurons (ATCC) were cultured in DMEM with 4 mM L-glutamine adjusted to contain 1.5 g/L sodium bicarbonate, 4.5 g/L glucose, fetal bovine serum (10%).
(§1) Aβ1-40, 42 and sAPPα from cell and brain homogenates were detected by Aβ1-40, 42 and sAPPα ELISA kits (IBL-America), strictly following the manufacturer's instructions^43,44.
(§2) WB analyses were performed as previously described^43,44. Briefly, 10% bicine/tris gel containing 8 M urea was used for separation of Aβ1-40, 42 species from brain homogenates or CHO cell conditioned media or lysates, followed by transfer to 0.2 μm pore-size nitrocellulose membrane (Bio-Rad, Hercules, Calif.). The membrane was boiled in PBS for 3 to 5 min before blocking to enhance sensitivity and then incubated with 82E1. For all other proteins detected by WB, 10% tris-SDS gels were used. Densitometry analysis was performed as previously described using a FluorS Multiimager with Quantity One™ software 43.

CHO/APPwt cells [2] = experiment: Inhibition of apoE-/lipoprotein-induced Aβ production in CHO/APPwt cells (Aβ ELISA); type: cell-based, Chinese hamster
Experimental: CHO/APPwt cells were treated with apoE LDLR binding domain peptide (aa 133-152, ApoEp), FlagApoEp, BiotinApoEp, 3K (lysine) ApoEp, 3D (aspartate) ApoEp or scrambled peptide at 0 to 25 μM, followed after 2 h by analysis of Aβ levels in conditioned media by ELISA (Aβ ELISA, FIGS. 19A and 19C) and after 16 h by analysis of Aβ in cell lysates by Western blot using 82E1 antibody (Aβ WB, FIG. 19B). […] Pre-incubating with HDL has been previously reported to lipidate apoE. Hu astro med was obtained from human astrocytes (CCF-STTG1/ATCC® CRL-1718™) as described previously. […]
CHO cells were also transfected with pCMV6 APP695 or pCMV6 E1 depleted APP695, yielding cells expressing wild type APP695 (CHO/APPwt) or truncated APP695 lacking the N-terminal E1 region (CHO/APPdE1). […] Diagram indicates important domains identified in APP, including N-terminal E1 region (top panel), and APPwt and APPdE1 proteins in cell lysates and conditioned media derived from the transfected CHO cells as determined by WB using 6E10 (middle panels). […] Asterisk indicates P<0.05 compared with the corresponding absence of 22C11, 6H3B5 or 6KApoEp, or with corresponding CHO/APPwt cells, as determined by one-way ANOVA. […]
as §1

CHO/APPwt cells [3] = experiment: Total cell associated cholesterol in CHO/APPwt cells; type: cell-based, Chinese hamster; settings: 6KApoEp 0, 5 and 10 μM overnight
Experimental: (§3) Total cell associated cholesterol levels are represented as mean±s.d. (μg/mg of total intracellular protein) from three independent experiments. In addition, total plasma cholesterol levels in 3×Tg-AD mice treated with ApoEp (n=6) and 5×FAD mice treated with 6KApoEp (n=10) or PBS (Ctrl, n=10), as described in FIGS. 25A-26G, and in associated wild-type mice (WT) were analyzed by flourometric cholesterol quantitation kit (FIG. 31B). LDLR (FIG. 31C, top panel) and ApoE (middle panel) expression levels in brain homogenates were also analyzed by WB. […] (*P<0.05) and P>0.0.5, non-significant compared to control treatment.
CHO/APPwt cells were cultured overnight in 6-well plates at 2×10^6 cells/well in serum free DMEM, followed by washing 3 times with ice-cold PBS, lysis by sonication in chloroform:isopropanol:IGEPAL CA-630 (7:11:0.1) and centrifugation. The organic phase was transferred to a new tube, air dried at 50° C. to remove chloroform and diluted 10-fold in cholesterol assay buffer for cholesterol determination by flourometric cholesterol quantitation kit according to manufacturer's instructions (MilliporeSigma).

[4] = Plasma cholesterol and brain LDLR and ApoE expression in treated 3×Tg-AD and 5×FAD mice; type: in vivo, mouse; settings: 5×FAD mice treated with 6KApoEp
Experimental: as §3

[5] = biological target: T1, human recombinant sAPPβ (rsAPPβ, without Aβ domain) (human, UniProt P05067 18-671, limits assumed); experiment: in vitro incubation 1 h at 37 °C, IP with 6H3B5, WB
T1 construct: domain: sAPPβ (without Aβ domain); Bought protein
T1 sequence (P05067 18-671 limits assumed): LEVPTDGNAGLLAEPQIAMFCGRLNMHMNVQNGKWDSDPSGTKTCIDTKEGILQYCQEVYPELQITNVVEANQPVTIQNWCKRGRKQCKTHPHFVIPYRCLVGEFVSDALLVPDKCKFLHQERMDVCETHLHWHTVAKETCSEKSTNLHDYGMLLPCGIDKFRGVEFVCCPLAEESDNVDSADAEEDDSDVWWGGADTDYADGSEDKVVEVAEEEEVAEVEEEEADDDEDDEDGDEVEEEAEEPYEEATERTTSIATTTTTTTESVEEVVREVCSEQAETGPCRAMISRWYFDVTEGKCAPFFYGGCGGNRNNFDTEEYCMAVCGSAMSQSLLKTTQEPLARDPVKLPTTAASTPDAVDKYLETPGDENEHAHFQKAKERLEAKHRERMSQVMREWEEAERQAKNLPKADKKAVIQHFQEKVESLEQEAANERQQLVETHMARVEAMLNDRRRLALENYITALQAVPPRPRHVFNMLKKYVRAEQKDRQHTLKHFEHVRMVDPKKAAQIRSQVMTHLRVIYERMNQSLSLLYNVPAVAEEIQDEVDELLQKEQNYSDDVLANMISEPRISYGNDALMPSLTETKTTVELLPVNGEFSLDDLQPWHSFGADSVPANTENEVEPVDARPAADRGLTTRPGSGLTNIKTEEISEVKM

[6] = biological target: T2, CHO/APPwt cell conditioned medium-derived sAPPα (cmsAPPα) (human, UniProt P05067 18-687, limits assumed); experiment: as above
T2 construct: domain: sAPPα
T2 sequence (P05067 18-687 limits assumed): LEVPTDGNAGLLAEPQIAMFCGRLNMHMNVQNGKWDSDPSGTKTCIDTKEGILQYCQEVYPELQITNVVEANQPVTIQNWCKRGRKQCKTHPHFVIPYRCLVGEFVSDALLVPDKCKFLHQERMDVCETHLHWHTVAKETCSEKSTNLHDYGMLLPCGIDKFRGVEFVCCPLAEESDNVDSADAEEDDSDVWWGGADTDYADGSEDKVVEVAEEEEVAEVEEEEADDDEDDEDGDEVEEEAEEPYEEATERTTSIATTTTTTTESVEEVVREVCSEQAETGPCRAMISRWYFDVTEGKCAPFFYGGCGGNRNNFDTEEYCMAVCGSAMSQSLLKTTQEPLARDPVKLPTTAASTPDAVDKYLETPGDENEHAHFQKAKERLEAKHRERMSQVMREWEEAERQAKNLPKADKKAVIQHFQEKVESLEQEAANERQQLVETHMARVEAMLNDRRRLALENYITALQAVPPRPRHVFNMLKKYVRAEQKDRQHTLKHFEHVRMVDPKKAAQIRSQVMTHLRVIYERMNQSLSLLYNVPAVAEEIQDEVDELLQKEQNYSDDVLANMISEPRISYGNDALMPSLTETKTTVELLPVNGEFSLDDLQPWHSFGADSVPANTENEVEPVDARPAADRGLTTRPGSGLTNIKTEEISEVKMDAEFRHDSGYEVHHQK

[7] = biological target: T3, human recombinant sAPPα (rsAPPα) (human, UniProt P05067 18-687, limits assumed); experiment: as above
T3 construct: domain: sAPPα; also called human sAPPα protein
T3 sequence (P05067 18-687 limits assumed): as above

[8] = biological target: T4, human wild-type amyloid precursor protein (APPwt) expressed in CHO/APPwt cells (human, UniProt P05067 18-770); experiment: CHO/APPwt cells treated 2 h; IP of cell lysates with 6H3B5 or pN-APP and WB; immunofluorescence
T4 construct: whole, on cells; Full-length APP in cell lysates or on fixed CHO/APPwt cells; also called full-length APP; f-APP
T4 sequence (P05067 18-770): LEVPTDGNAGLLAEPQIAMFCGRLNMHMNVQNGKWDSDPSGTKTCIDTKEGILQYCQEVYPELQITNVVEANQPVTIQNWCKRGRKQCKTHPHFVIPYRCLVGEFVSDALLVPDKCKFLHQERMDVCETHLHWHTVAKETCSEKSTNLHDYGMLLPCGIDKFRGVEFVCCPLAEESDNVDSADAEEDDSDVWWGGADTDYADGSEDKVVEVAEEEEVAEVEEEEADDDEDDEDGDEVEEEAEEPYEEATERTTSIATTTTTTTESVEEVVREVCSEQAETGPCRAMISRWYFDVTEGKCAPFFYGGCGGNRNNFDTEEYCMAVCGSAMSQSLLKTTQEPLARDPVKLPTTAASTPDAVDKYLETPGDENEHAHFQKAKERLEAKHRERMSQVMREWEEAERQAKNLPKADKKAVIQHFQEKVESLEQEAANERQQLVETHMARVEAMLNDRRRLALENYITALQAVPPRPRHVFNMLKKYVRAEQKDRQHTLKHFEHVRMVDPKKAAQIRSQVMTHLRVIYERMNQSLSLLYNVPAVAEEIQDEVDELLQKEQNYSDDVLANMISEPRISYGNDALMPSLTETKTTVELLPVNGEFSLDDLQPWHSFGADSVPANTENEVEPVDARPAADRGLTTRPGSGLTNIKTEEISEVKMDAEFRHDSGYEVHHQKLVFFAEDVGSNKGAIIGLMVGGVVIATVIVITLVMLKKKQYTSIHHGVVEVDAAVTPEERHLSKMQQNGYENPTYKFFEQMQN
Experimental: as §2, with “described^{43,44}.” for “described^43,44.”, “43. Immunoprecipitation (IP) was performed by first incubating conditioned media or cell lysates with appropriate antibodies and Protein-A/G Mag Sepharose beads (GE Healthcare Life Sciences, Pittsburgh, Pa.) overnight with gentle rocking at 4° C., followed by three washes with binding buffer (50 mM tris, 150 mM NaCl, pH 7.5) and analysis by WB.” for “43.”

[9] = biological target: T5, total secreted APP (t-sAPP) in CHO/APPwt conditioned media (human, UniProt P05067 18-687, limits assumed); experiment: CHO/APPwt cells treated 2 h; IP of conditioned media with 6H3B5 or pN-APP and WB
T5 construct: domain: total secreted APP (t-sAPP); Mixture of secreted APP ectodomain forms
T5 sequence (P05067 18-687 limits assumed): as the sequence (P05067 18-687 limits assumed) above
Experimental: as §2, with “described^{43,44}.” for “described^43,44.”, “43. Immunoprecipitation (IP) was performed by first incubating conditioned media or cell lysates with appropriate antibodies and Protein-A/G Mag Sepharose beads (GE Healthcare Life Sciences, Pittsburgh, Pa.) overnight with gentle rocking at 4° C., followed by three washes with binding buffer (50 mM tris, 150 mM NaCl, pH 7.5) and analysis by WB.” for “43.”

[10] = biological target: T4, human wild-type amyloid precursor …; experiment: cell-based or functional assay

## ApoB100: apolipoprotein B, human plasma (Athens Research & Technology)
CHO/APPwt cells [1]
  sAPPα secretion: decreased sAPPα secretion
  Aβ production (Aβ1-40, 42): increased Aβ1-40, 42 production; also recorded: markedly promote amyloid β protein (Aβ) production

## DYKDDDDK-LRVRLASHLRKLRKRLLRDA (DYKDDDDKLRVRLASHLRKLRKRLLRDA; N-terminal FLAG ApoE recombinant polypeptide) [FlagApoEp, ApoEp modified by N-terminal addition of Flag-Tag]
CHO/APPwt cells [1]
  Aβ production (Aβ1-40, 42): greatly enhanced the efficacy of ApoEp to increase Aβ1-40, 42 levels

## KKKLRVRLASHLRKLRKRLLRDA (polypeptide configured to modulate binding of a protein the an ApoE receptor) [3KApoEp, ApoEp with 3 N-terminal lysines]
CHO/APPwt cells [2]; peptide 10 μM for 15 min, then with or without hu rec ApoE4 10 μg/mL for 2 hours
  basal and apoE4-induced Aβ production: moderately
CHO/APPwt cells [2]; pre-treatment at about 10 μM, then inducer for about 2 hours
  Aβ generation induced by human plasma ApoE3, human recombinant ApoE3 and ApoE4, human plasma LDL and ApoB100: Markedly Inhibits Aβ Generation
CHO/APPwt cells [1]
  Aβ production (Aβ1-40, 42): terminated this amyloidogenic effect

## CC(C)C[C@H](NC(=O)[C@H](CCCNC(=N)N)NC(=O)[C@@H](NC(=O)[C@H](CCCNC(=N)N)NC(=O)[C@H](CC(C)C)NC(=O)[C@H](CCCCN)NC(=O)[C@H](CCCCN)NC(=O)[C@H](CCCCN)NC(=O)[C@H](CCCCN)NC(=O)[C@H](CCCCN)NC(=O)[C@@H](N)CCCCN)C(C)C)C(=O)N[C@@H](C)C(=O)N[C@@H](CO)C(=O)N[C@@H](Cc1c[nH]cn1)C(=O)N[C@@H](CC(C)C)C(=O)N[C@@H](CCCNC(=N)N)C(=O)N[C@@H](CCCCN)C(=O)N[C@@H](CC(C)C)C(=O)N[C@@H](CCCNC(=N)N)C(=O)N[C@@H](CCCCN)C(=O)N[C@@H](CCCNC(=N)N)C(=O)N[C@@H](CC(C)C)C(=O)N[C@@H](CC(C)C)C(=O)N[C@@H](CCCNC(=N)N)C(=O)N[C@@H](CC(=O)O)C(=O)N[C@@H](C)C(=O)O [6KApoEp] (H-KKKKKKLRVRLASHLRKLRKRLLRDA-OH; N-terminus and C-terminus assumed)
CHO/APPwt cells [3]
  cell-associated cholesterol levels: without altering cell-associated or plasma cholesterol levels
[4]
  plasma cholesterol levels: without altering cell-associated or plasma cholesterol levels

B1: 6K (6 lysine peptide) (peptide)
peptide: KKKKKK
notes: Control peptide of six lysines; also called 6K lysine
[5]
  binding result: no binding (tested: 100 nM)
[6]
  binding result: no binding (tested: 100 nM)
[7]
  binding result: no binding (tested: 100 nM)
[8]
  binding result: no binding (tested: 10 µM)
[9]
  binding result: no binding (tested: 10 µM)

B2: 6KApoEp (ApoE LDLR binding domain peptide with 6 N-terminal lysines) (peptide)
peptide: KKKKKKLRVRLASHLRKLRKRLLRDA
[10]
  apoE4-induced Aβ production in CHO/APPwt cells (Aβ ELISA and WB), IC50: 320 to 630 nM
